In the supplement of paper PMC10307832:

Experiments:
Assay in all cases: relative viability (nuclei count vs DMSO), 5 days (fraction); higher = more cells survive
[1] = compound: CC[C@H](Nc1ncnc2[nH]cnc12)c1nc2cccc(F)c2c(=O)n1-c1ccccc1 [Idelalisib] + CS(=O)(=O)N1CCN(Cc2cc3nc(-c4cccc5[nH]ncc45)nc(N4CCOCC4)c3s2)CC1 [Pictilisib] (partner 1 µM)
In short: (§1)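 Lung cancer cell lines in 1536-well plates were dosed by pin tool the day after seeding, either with one drug alone or with a fixed anchor-drug dose plus five library-drug doses (not always all listed) in √10 steps. After 5 days, cells were fixed and their nuclei stained in one step (final 0.05% Triton X-100, 1% formaldehyde, 1 ug/ml Hoechst), then counted on 4× images. Relative viability is the nuclei count in treated wells divided by that in vehicle wells. Values are medians of duplicate plates.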

[2] = compound: CC[C@H](Nc1ncnc2[nH]cnc12)c1nc2cccc(F)c2c(=O)n1-c1ccccc1 [Idelalisib] + Nc1ncn([C@H]2C[C@H](O)[C@@H](CO)O2)c(=O)n1 [Decitabine] (partner 2 µM)
In short: as §1

[3] = compound: Nc1nc2[nH]cc(CCc3ccc(C(=O)N[C@@H](CCC(=O)O)C(=O)O)cc3)c2c(=O)[nH]1 [Pemetrexed] + CC(=O)c1c(C)c2cnc(Nc3ccc(N4CCNCC4)cn3)nc2n(C2CCCC2)c1=O [Palbociclib] (partner 0.5 µM)
In short: as §1

[4] = compound: Nc1nc2[nH]cc(CCc3ccc(C(=O)N[C@@H](CCC(=O)O)C(=O)O)cc3)c2c(=O)[nH]1 [Pemetrexed] + COc1cccc2cc(-c3nc([C@H]4CC[C@H](C(=O)O)CC4)n4ncnc(N)c34)[nH]c12 [OSI-027] (partner 0.5 µM)
In short: as §1

For UMC-11, the relative viability ([1]; first compound 0.04 µM) was 0.939, the relative viability ([1]; first compound 0.1265 µM) was 0.744 and the relative viability ([1]; first compound 0.4 µM) was 0.778. For the same cell line, the relative viability ([1]; first compound 1.265 µM) was 0.939, the relative viability ([1]; first compound 4 µM) was 0.865 and the relative viability ([2]; first compound 0.04 µM) was 0.698. It also gave a relative viability ([2]; first compound 0.1265 µM) of 0.595, a relative viability ([2]; first compound 0.4 µM) of 0.577 and a relative viability ([2]; first compound 1.265 µM) of 0.609. The relative viability ([2]; first compound 4 µM) was 0.333, the relative viability ([3]; first compound 0.002 µM) was 0.344 and the relative viability ([3]; first compound 0.006325 µM) was 0.322. It also gave a relative viability ([3]; first compound 0.02 µM) of 0.343, a relative viability ([3]; first compound 0.06325 µM) of 0.342 and a relative viability ([3]; first compound 0.2 µM) of 0.357. The relative viability ([4]; first compound 0.002 µM) was 0.501, the relative viability ([4]; first compound 0.006325 µM) was 0.482 and the relative viability ([4]; first compound 0.02 µM) was 0.481. It also gave a relative viability ([4]; first compound 0.06325 µM) of 0.522 and a relative viability ([4]; first compound 0.2 µM) of 0.487.
